# Measured values as given in patent US20230181546A1, “TREATMENT OF RESPIRATORY DISEASES WITH AMINO ACID COMPOUNDS” (Pliant Therapeutics, Inc., priority 2020, published 2023).
# Biological target: recombinant human integrin αVβ6 (Homo sapiens, UniProt P06756+P18564)
# Experiment: Solid phase integrin αVβ6 binding assay (Examples B1, B2)
# Settings: TGFβ1 LAP binding, values given in four ranges, read-out: αvβ6 Inhibition IC50 (nM) - range
# Method: (§1) Microplates were coated with recombinant human integrin αVβ6 (2 μg/mL) in PBS (100 μL/well 25° C., overnight). The coating solution was removed, washed with wash buffer (0.05% Tween 20: 0.5 mM MnCl2; in 1×TBS). The plate was blocked with 200 μL/well of Block Buffer (1% BSA; 5% sucrose; 0.5 mM MnCl2; in 1×TBS) at 37° C. for 2 h. Dilutions of testing compounds and recombinant TGFβ1 LAP (0.67 μg/mL) in binding buffer (0.05% BSA; 2.5% sucrose; 0.5 mM MnCl2; in 1×TBS) were added. The plate was incubated for 2 hours at 25° C., washed, and incubated for 1 hour with Biotin-Anti-hLAP. Bound antibody was detected by peroxidase-conjugated streptavidin. The IC50 values for testing compounds were calculated by a four-parameter logistic regression.
# The compounds tested were compound samples prepared according to procedures described in the Synthetic Examples section, with the stereochemical purity as indicated in the Examples.
# as §1, with “A third series of exemplary compounds was selected for testing in the solid phase integrin αVβ6 binding assay. The compounds tested were compound samples prepared according to procedures described in the Synthetic Examples section, with the stereochemical purity as indicated in the Examples. As in Example B1, microplates” for “Microplates”, “20;” for “20:”
# Sequence of recombinant human integrin αVβ6 (P06756 31-992 limits assumed): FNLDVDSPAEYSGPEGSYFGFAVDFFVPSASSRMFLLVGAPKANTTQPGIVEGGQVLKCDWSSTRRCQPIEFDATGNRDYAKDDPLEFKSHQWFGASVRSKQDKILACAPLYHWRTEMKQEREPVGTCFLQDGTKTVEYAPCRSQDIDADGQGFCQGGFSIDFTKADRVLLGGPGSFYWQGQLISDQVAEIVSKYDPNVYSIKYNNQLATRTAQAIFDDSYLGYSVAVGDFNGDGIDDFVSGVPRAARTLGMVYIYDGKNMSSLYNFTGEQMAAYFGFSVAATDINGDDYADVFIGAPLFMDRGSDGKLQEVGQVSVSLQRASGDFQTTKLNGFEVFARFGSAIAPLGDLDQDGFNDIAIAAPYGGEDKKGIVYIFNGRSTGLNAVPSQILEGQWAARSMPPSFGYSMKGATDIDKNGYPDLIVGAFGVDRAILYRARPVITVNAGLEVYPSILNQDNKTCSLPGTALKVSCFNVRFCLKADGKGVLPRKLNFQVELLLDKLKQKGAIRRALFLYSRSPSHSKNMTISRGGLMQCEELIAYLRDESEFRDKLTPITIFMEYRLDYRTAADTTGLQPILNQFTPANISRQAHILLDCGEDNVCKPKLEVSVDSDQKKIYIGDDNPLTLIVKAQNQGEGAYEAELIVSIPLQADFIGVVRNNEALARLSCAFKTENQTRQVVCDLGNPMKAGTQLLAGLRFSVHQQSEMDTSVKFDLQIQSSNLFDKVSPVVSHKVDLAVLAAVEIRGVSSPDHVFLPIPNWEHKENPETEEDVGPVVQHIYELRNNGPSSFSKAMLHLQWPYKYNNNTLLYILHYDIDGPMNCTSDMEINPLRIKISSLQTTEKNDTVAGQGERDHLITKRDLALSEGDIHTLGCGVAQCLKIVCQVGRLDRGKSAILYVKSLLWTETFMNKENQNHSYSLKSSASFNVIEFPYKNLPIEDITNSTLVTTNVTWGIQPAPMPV
# Sequence of recombinant human integrin αVβ6 (P18564 22-707 limits assumed): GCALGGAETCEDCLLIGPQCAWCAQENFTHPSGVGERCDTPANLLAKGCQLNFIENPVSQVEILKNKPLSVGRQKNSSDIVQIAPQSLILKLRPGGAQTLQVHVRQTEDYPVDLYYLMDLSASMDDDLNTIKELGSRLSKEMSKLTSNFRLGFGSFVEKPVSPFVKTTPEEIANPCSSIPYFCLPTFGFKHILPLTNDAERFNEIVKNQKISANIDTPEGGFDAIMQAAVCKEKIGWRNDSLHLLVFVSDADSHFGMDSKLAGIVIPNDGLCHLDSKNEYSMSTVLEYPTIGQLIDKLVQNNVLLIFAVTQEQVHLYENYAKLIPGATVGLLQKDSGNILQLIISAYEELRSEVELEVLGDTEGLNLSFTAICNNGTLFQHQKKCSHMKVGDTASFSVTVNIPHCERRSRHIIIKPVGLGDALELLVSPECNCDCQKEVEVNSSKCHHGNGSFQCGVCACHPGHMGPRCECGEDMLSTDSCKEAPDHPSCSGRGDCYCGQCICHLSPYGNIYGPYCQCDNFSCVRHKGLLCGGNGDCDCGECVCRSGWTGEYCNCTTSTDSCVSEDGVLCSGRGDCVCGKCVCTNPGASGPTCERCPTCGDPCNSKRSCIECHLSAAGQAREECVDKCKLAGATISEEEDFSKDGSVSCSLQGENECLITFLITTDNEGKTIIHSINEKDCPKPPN
row,Compound,IC50
1,"O=C(O)[C@H](CCN(CCCCc1ccc2c(n1)NCCC2)CCOc1ccccc1)Nc1ncc(Br)cn1 [Compound 83, (S)-2-((5-bromopyrimidin-2-yl)amino)-4-((2-phenoxyethyl) (4-(5,6,7,8-tetrahydro-1,8-naphthyridin-2-yl)butyl)amino) butanoic acid]",< 50 nM
2,"CO[C@H](C)CN(CCCCc1ccc2c(n1)NCCC2)CC[C@H](Nc1ncc(Br)cn1)C(=O)O [Compound 70, (S)-2-((5-bromopyrimidin-2-yl)amino)-4-(((R)-2-methoxypropyl) (4-(5,6,7,8-tetrahydro-1,8-naphthyridin-2-yl)butyl)amino) butanoic acid]",< 50 nM
3,"Cc1ncccc1OCCN(CCCCc1ccc2c(n1)NCCC2)CC[C@H](Nc1ncnc2cccnc12)C(=O)O [Compound 54, (S)-4-((2-((2-methylpyridin-3-yl)oxy)ethyl) (4-(5,6,7,8-tetrahydro-1,8-naphthyridin-2-yl)butyl)amino)-2-(pyrido[3,2-d]pyrimidin-4-ylamino) butanoic acid]",< 50 nM
4,"O=C(O)[C@H](CCN(CCCCc1ccc2c(n1)NCCC2)CCOc1ccccc1)Nc1ccnc(C(F)(F)F)n1 [Compound 92, (S)-4-((2-phenoxyethyl) (4-(5,6,7,8-tetrahydro-1,8-naphthyridin-2-yl)butyl)amino)-2-((2-(rifluoromethyl)pyrimidin-4-yl)amino) butanoic acid]",< 50 nM
5,"O=C(O)[C@H](CCN(CCCCc1ccc2c(n1)NCCC2)CCOC(F)F)Nc1ncnc2ccccc12 [Compound 35, (S)-4-((2-(difluoromethoxy)ethyl) (4-(5,6,7,8-tetrahydro-1,8-naphthyridin-2-yl)butyl)amino)-2-(quinazolin-4-ylamino) butanoic acid]",< 50 nM
6,"O=C(O)[C@H](CCN(CCCCc1ccc2c(n1)NCCC2)CC(F)F)Nc1ccncn1 [Compound 120, (S)-4-((2,2-difluoroethyl) (4-(5,6,7,8-tetrahydro-1,8-naphthyridin-2-yl)butyl)amino)-2-(pyrimidin-4-ylamino) butanoic acid]",> 1000 nM
7,"COCCN(CCCCc1ccc2c(n1)NCCC2)CC[C@H](Nc1cc(C(F)F)ncn1)C(=O)O [Compound 23, (S)-2-((6-(difluoromethyl)pyrimidin-4-yl)amino)-4-((2-methoxyethyl) (4-(5,6,7,8-tetrahydro-1,8-naphthyridin-2-yl)butyl)amino) butanoic acid]",< 50 nM
